Experimental data taken from patent EP4582423A1, “NOVEL TRICYCLIC DERIVATIVE COMPOUND AND USES THEREOF” (Hanmi Pharm. Co., Ltd., priority 2022, dated 2024).

Test system: HCT116 MTAP-/- cells
Test: Cell growth inhibition test (SRB staining)
Type: cell-based
Settings: HCT116 MTAP-/- cells, 0.64 nM - 2,000 nM, 6 dose points, 6 days, SRB staining, absorbance at 540 nm; read-out: HCT116 MTAP-/- cell growth inhibition (GI50)
Experimental: The synthetic compounds above were tested for cell growth inhibition against HCT116 cells.
HCT116 MTAP-/- (homozygous knockout of MTAP gene in HCT116 MTAP-WT cells by CRISPER/Cas9 method) cells were maintained in RPMI1640 medium containing 10 % FBS and 1 % penicillin-streptomycin. Approximately 5×10^2 cells were seeded in a 96-well plate and treated with a test compound. (0.64 nM - 2,000 nM, 6 dose points for HCT116 MTAP-/- cells for 5x and 6 days) cell growth was measured by SRB staining and absorbance was detected at 540 nm on a Synergy™ NEO microplate reader. The 50 % growth inhibition value (GI50) of the cell line was calculated using GraphPad Prism V9 software.

GI50	Compound
< 100 nM	7-chloro-2-(4-methoxyphenyl)-1-methyl-5-(o-tolyl)-1,5-dihydro-4H-imidazo[4,5-c]quinolin-4-one [Compound 10]

Same assay, conditions: Homo sapiens, HCT-116, 144 h, read-out: HCT116 MTAP-/- cell growth inhibition (GI50, nM)

Compound	GI50
Cn1c(Cc2ccccc2)nc2c(=O)n(-c3ccccc3)c3cc(Cl)ccc3c21 [Compound 1, 2-benzyl-7-chloro-1-methyl-5-phenyl-1,5-dihydro-4H-imidazo[4,5-c]quinolin-4-one]	100 to 500 nM

Same assay, conditions: Homo sapiens, HCT-116, 144 h; HCT116 MTAP-/- cells, 0.64 nM - 2,000 nM, 6 dose points, 6 days, SRB staining, absorbance at 540 nm; read-out: HCT116 MTAP-/- cell growth inhibition (GI50)

Compound	GI50
Cn1c(Cc2ccc(O)cc2)nc2c(=O)n(-c3ccccc3)c3cc(Cl)ccc3c21 [Compound 3, 7-chloro-2-(4-hydroxybenzyl)-1-methyl-5-phenyl-1,5-dihydro-4H-imidazo[4,5-c]quinolin-4-one]	> 1000 nM
COc1ccccc1Cc1nc2c(=O)n(-c3ccccc3)c3cc(Cl)ccc3c2n1C [Compound 5, 7-chloro-2-(2-methoxybenzyl)-1-methyl-5-phenyl-1,5-dihydro-4H-imidazo[4,5-c]quinolin-4-one]	100 to 500 nM
Cn1c(Cc2ccc(Cl)cc2)nc2c(=O)n(-c3ccccc3)c3cc(Cl)ccc3c21 [Compound 6, 7-chloro-2-(4-chlorobenzyl)-1-methyl-5-phenyl-1,5-dihydro-4H-imidazo[4,5-c]quinolin-4-one]	100 to 500 nM
Cn1c(Cc2ccncc2)nc2c(=O)n(-c3ccccc3)c3cc(Cl)ccc3c21 [Compound 7, 7-chloro-1-methyl-5-phenyl-2-(pyridin-4-ylmethyl)-1,5-dihydro-4H-imidazo[4,5-c]quinolin-4-one]	> 1000 nM
COc1ccc(Cc2nc3c(=O)n(-c4ccccc4)c4cc(Cl)ccc4c3n2C)cc1OC [Compound 8, 7-chloro-2-(3,4-dimethoxybenzyl)-1-methyl-5-phenyl-1,5-dihydro-4H-imidazo[4,5-c]quinolin-4-one]	100 to 500 nM
Cn1c(Cn2ccnc2)nc2c(=O)n(-c3ccccc3)c3cc(Cl)ccc3c21 [Compound 12, 2-((1H-imidazol-1-yl)methyl)-7-chloro-1-methyl-5-phenyl-1,5-dihydro-4H-imidazo[4,5-c]quinolin-4-one]	> 1000 nM
COc1ccc(Cc2nc3c(=O)n(-c4ccccc4)c4nc(NCC(F)(F)F)ccc4c3n2C)cc1 [Compound 15, 2-(4-methoxybenzyl)-1-methyl-5-phenyl-7-((2,2,2-trifluoroethyl)amino)-1,5-dihydro-4H-imidazo[4,5-c][1,8]naphthyridin-4-one]	> 1000 nM
COc1ccc(Sc2nc3c(=O)n(-c4ccccc4)c4cc(Cl)ccc4c3n2C)cc1 [Compound 18, 7-chloro-2-((4-methoxyphenyl)thio)-1-methyl-5-phenyl-1,5-dihydro-4H-imidazo[4,5-c]quinolin-4-one]	< 100 nM
COc1ccc(S(=O)(=O)c2nc3c(=O)n(-c4ccccc4)c4cc(Cl)ccc4c3n2C)cc1 [Compound 19, 7-chloro-2-((4-methoxyphenyl)sulfonyl)-1-methyl-5-phenyl-1,5-dihydro-4H-imidazo[4,5-c]quinolin-4-one]	500 to 1000 nM
COc1ccc([S+]([O-])c2nc3c(=O)n(-c4ccccc4)c4cc(Cl)ccc4c3n2C)cc1 (stereo not drawn) [Compound 20, 7-chloro-2-((4-methoxyphenyl)sulfinyl)-1-methyl-5-phenyl-1,5-dihydro-4H-imidazo[4,5-c]quinolin-4-one]	500 to 1000 nM
COc1ccc(Cc2nc3c(=O)n(-c4cccnc4C(F)(F)F)c4cc(Cl)ccc4c3n2C)cc1 [Compound 23, 7-chloro-2-(4-methoxybenzyl)-1-methyl-5-(2-(trifluoromethyl)pyridin-3-yl)-1,5-dihydro-4H-imidazo[4,5-c]quinolin-4-one]	100 to 500 nM
COc1ccc(Cc2nc3c(=O)n(-c4ccccc4C(F)(F)F)c4cc(Cl)ccc4c3n2C)cc1 [Compound 25, 7-chloro-2-(4-methoxybenzyl)-1-methyl-5-(2-(trifluoromethyl)phenyl)-1,5-dihydro-4H-imidazo[4,5-c]quinolin-4-one]	100 to 500 nM
COc1ccc(Cc2nc3c(=O)n(-c4ccccc4Cl)c4cc(Cl)ccc4c3n2C)cc1 [Compound 26, 7-chloro-5-(2-chlorophenyl)-2-(4-methoxybenzyl)-1-methyl-1,5-dihydro-4H-imidazo[4,5-c]quinolin-4-one]	100 to 500 nM
Cc1ncccc1-n1c(=O)c2nc(Cc3ccc(F)c(F)c3)n(C)c2c2ccc(Cl)cc21 [Compound 30, 7-chloro-2-(3,4-difluorobenzyl)-1-methyl-5-(2-methylpyridin-3-yl)-1,5-dihydro-4H-imidazo[4,5-c]quinolin-4-one]	< 100 nM
COc1ccc(Cc2nc3c(=O)n(-c4cccnc4)c4cc(Cl)ccc4c3n2C)cc1 [Compound 31, 7-chloro-2-(4-methoxybenzyl)-1-methyl-5-(pyridin-3-yl)-1,5-dihydro-4H-imidazo[4,5-c]quinolin-4-one]	< 100 nM
COc1ccc(Cc2nc3c(=O)n(-c4ccc(F)cc4)c4cc(Cl)ccc4c3n2C)cc1 [Compound 32, 7-chloro-5-(4-fluorophenyl)-2-(4-methoxybenzyl)-1-methyl-1,5-dihydro-4H-imidazo[4,5-c]quinolin-4-one]	> 1000 nM
COc1ccc(Sc2nc3c(=O)n(-c4cccnc4C)c4cc(Cl)ccc4c3n2C)cc1 [Compound 35, 7-chloro-2-((4-methoxyphenyl)thio)-1-methyl-5-(2-methylpyridin-3-yl)-1,5-dihydro-4H-imidazo[4,5-c]quinolin-4-one]	< 100 nM

Now from value to compound:

GI50	Compound
< 100 nM	COc1ccc(Cc2nc3c(=O)n(-c4ccccc4)c4cc(Cl)ccc4c3n2C)cc1 [Compound 2, 7-chloro-2-(4-methoxybenzyl)-1-methyl-5-phenyl-1,5-dihydro-4H-imidazo[4,5-c]quinolin-4-one]
< 100 nM	COc1cccc(Cc2nc3c(=O)n(-c4ccccc4)c4cc(Cl)ccc4c3n2C)c1 [Compound 4, 7-chloro-2-(3-methoxybenzyl)-1-methyl-5-phenyl-1,5-dihydro-4H-imidazo[4,5-c]quinolin-4-one]
> 1000 nM	Cn1c(CCc2ccccc2)nc2c(=O)n(-c3ccccc3)c3cc(Cl)ccc3c21 [Compound 9, 7-chloro-1-methyl-2-phenethyl-5-phenyl-1,5-dihydro-4H-imidazo[4,5-c]quinolin-4-one]
500 to 1000 nM	O=c1c2nc(Cc3ccccc3)[nH]c2c2ccc(Cl)cc2n1-c1ccccc1 [Compound 11, 2-benzyl-7-chloro-5-phenyl-1,5-dihydro-4H-imidazo[4,5-c]quinolin-4-one]
> 1000 nM	COc1ccc(Cc2nc3c(=O)n(-c4ccc(Cl)c(F)c4)c4cc(Cl)ccc4c3n2C)cc1 [Compound 16, 7-chloro-5-(4-chloro-3-fluorophenyl)-2-(4-methoxybenzyl)-1-methyl-1,5-dihydro-4H-imidazo[4,5-c]quinolin-4-one]
> 1000 nM	COc1ccc(Cc2nc3c(=O)n(-c4ccc(F)c(Cl)c4)c4cc(Cl)ccc4c3n2C)cc1 [Compound 17, 7-chloro-5-(3-chloro-4-fluorophenyl)-2-(4-methoxybenzyl)-1-methyl-1,5-dihydro-4H-imidazo[4,5-c]quinolin-4-one]
< 100 nM	COc1ccc(Cc2nc3c(=O)n(-c4cccnc4C)c4cc(Cl)ccc4c3n2C)cc1 [Compound 21, 7-chloro-2-(4-methoxybenzyl)-1-methyl-5-(2-methylpyridin-3-yl)-1,5-dihydro-4H-imidazo[4,5-c]quinolin-4-one]
500 to 1000 nM	COc1ccc(Cc2nc3c(=O)n(-c4cccnc4C)c4ccccc4c3n2C)cc1 [Compound 22, 2-(4-methoxybenzyl)-1-methyl-5-(2-methylpyridin-3-yl)-1,5-dihydro-4H-imidazo[4,5-c]quinolin-4-one]
100 to 500 nM	COc1ccc(Cc2nc3c(=O)n(-c4cccnc4C4CC4)c4cc(Cl)ccc4c3n2C)cc1 [Compound 24, 7-chloro-5-(2-cyclopropylpyridin-3-yl)-2-(4-methoxybenzyl)-1-methyl-1,5-dihydro-4H-imidazo[4,5-c]quinolin-4-one]
< 100 nM	COc1ccc(Cc2nc3c(=O)n(-c4cccnc4C)c4cc(C(F)(F)F)ccc4c3n2C)cc1 [Compound 27, 2-(4-methoxybenzyl)-1-methyl-5-(2-methylpyridin-3-yl)-7-(trifluoromethyl)-1,5-dihydro-4H-imidazo[4,5-c]quinolin-4-one]
< 100 nM	Cc1ncccc1-n1c(=O)c2nc(Cc3ccc(F)cc3)n(C)c2c2ccc(Cl)cc21 [Compound 28, 7-chloro-2-(4-fluorobenzyl)-1-methyl-5-(2-methylpyridin-3-yl)-1,5-dihydro-4H-imidazo[4,5-c]quinolin-4-one]
< 100 nM	Cc1ncccc1-n1c(=O)c2nc(Cc3ccc4c(c3)OCO4)n(C)c2c2ccc(Cl)cc21 [Compound 29, 2-(benzo[d][1,3]dioxol-5-ylmethyl)-7-chloro-1-methyl-5-(2-methylpyridin-3-yl)-1,5-dihydro-4H-imidazo[4,5-c]quinolin-4-one]
< 100 nM	Cc1ncccc1-n1c(=O)c2nc(Cc3ccc(OC(F)F)cc3)n(C)c2c2ccc(Cl)cc21 [Compound 33, 7-chloro-2-(4-(difluoromethoxy)benzyl)-1-methyl-5-(2-methylpyridin-3-yl)-1,5-dihydro-4H-imidazo[4,5-c]quinolin-4-one]
> 1000 nM	COc1ccc(Sc2nc3c(=O)n(-c4ccc(OC)cc4)c4cc(Cl)ccc4c3n2C)cc1 [Compound 34, 7-chloro-5-(4-methoxyphenyl)-2-((4-methoxyphenyl)thio)-1-methyl-1,5-dihydro-4H-imidazo[4,5-c]quinolin-4-one]
